From the NIST ThermoML archive (doi:10.1021/je700594n)
Numbers after ± are expanded uncertainties.

Key:
[1] = Liquid; for mass density: 293.15 K, 101.33 kPa; for vapor or sublimation pressure: Ebulliometric method (Recirculating still)
[2] = refractive index (Na D-line) (dimensionless); settings: 293.15 K; 101.33 kPa; Liquid; Standard Abbe refractometry

Row | Compound | mass density [1] [kg/m3] | vapor or sublimation pressure ([1]; 383.1 K) [kPa] | vapor or sublimation pressure ([1]; 404.24 K) [kPa] | vapor or sublimation pressure ([1]; 417.99 K) [kPa] | vapor or sublimation pressure ([1]; 426.54 K) [kPa] | refractive index [2] | vapor or sublimation pressure ([1]; 379.88 K) [kPa] | vapor or sublimation pressure ([1]; 401.28 K) [kPa] | vapor or sublimation pressure ([1]; 415.26 K) [kPa] | vapor or sublimation pressure ([1]; 423.97 K) [kPa] | vapor or sublimation pressure ([1]; 375.63 K) [kPa] | vapor or sublimation pressure ([1]; 392.7 K) [kPa] | vapor or sublimation pressure ([1]; 403.8 K) [kPa] | vapor or sublimation pressure ([1]; 410.86 K) [kPa]
1 | COc1ccccc1 [anisole] | 994.1 ± 1.2 | 26.66 ± 0.25 | 53.33 ± 0.3 | 79.99 ± 0.43 | 101.32 ± 0.5 | 1.5171 ± 0.0007 | – | – | – | – | – | – | – | –
2 | CCCCCCCCC [nonane] | 717.6 ± 0.7 | – | – | – | – | 1.4055 ± 0.0007 | 26.66 ± 0.25 | 53.33 ± 0.3 | 79.99 ± 0.42 | 101.32 ± 0.49 | – | – | – | –
3 | CCCCCO [pentan-1-ol] | 814.5 ± 1 | – | – | – | – | 1.4098 ± 0.0007 | – | – | – | – | 26.66 ± 0.31 | 53.33 ± 0.37 | 79.99 ± 0.53 | 101.32 ± 0.61
